Test results published in patent US20150307520A1, “NOVEL HETEROARYL AND HETEROCYCLE COMPOUNDS, COMPOSITIONS AND METHODS THEREOF” (HUTCHISON MEDIPHARMA LIMITED, priority 2012, published 2015).

How the values were obtained:
Assay type in all cases: biochemical
[1] = target: p110β/p85α (Homo sapiens, UniProt P42338); test: Transcreener KINASE Assay, kinase inhibition of p110β/p85α; settings: for PI3Kβ IH % @ 1 uM: 1 uM test compound; for IC50: read-out: PI3Kβ IC50
Method in brief: (§1)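 ADP production was read by fluorescence polarization immunoassay (60 min detection step) after an 80 min room-temperature reaction of p110/p85α enzyme, compound in 2% DMSO, and PIP2/ATP solution (30 uM/10 uM as added) in HEPES buffer with MgCl2 and DTT. IC50s came from inhibition versus the DMSO control.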

[2] = target: p110γ (Homo sapiens, UniProt P48736); test: Transcreener KINASE Assay, kinase inhibition of p110γ; settings: for PI3Kγ IH % @ 1 uM: 1 uM test compound; for IC50: read-out: PI3Kγ IC50
p110γ, sequence (P48736 whole entry, canonical isoform): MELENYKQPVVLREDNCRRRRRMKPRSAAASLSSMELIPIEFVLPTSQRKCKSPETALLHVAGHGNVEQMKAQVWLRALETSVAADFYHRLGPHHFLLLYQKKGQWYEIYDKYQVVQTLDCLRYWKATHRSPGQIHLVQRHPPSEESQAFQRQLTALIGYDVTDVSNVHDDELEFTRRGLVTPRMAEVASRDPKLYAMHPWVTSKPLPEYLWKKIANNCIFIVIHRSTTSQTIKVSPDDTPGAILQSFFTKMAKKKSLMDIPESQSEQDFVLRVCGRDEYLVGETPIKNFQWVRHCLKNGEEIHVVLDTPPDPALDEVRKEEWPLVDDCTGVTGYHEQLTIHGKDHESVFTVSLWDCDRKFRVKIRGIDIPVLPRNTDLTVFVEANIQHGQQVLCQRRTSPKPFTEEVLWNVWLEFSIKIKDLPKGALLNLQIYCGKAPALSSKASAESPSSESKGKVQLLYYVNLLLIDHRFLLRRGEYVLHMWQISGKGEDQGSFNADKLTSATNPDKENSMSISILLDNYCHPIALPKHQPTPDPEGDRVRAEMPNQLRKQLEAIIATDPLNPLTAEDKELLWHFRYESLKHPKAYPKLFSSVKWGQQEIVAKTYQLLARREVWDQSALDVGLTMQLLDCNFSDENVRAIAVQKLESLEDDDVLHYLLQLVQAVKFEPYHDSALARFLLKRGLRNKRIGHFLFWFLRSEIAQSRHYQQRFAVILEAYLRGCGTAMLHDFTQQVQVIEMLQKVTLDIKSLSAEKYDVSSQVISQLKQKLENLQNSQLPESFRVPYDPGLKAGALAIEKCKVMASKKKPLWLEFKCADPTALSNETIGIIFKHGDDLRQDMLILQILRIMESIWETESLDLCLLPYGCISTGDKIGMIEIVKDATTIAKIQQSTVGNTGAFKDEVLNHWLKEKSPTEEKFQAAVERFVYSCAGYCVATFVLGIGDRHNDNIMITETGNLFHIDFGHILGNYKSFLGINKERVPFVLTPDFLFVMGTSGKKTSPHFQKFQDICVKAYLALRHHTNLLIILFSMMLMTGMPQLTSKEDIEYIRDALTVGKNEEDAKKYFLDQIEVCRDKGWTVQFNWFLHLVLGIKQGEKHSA
Method in brief: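 Kinase activity is monitored as ADP formation, detected by competitive fluorescence polarization with a far-red tracer. Recombinant isoform complexes react for 80 min at room temperature before a 60 min detection step. IC50 values come from fitted dose-response data.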

[3] = target: p110δ/p85α (Homo sapiens, UniProt O00329); test: Transcreener KINASE Assay, kinase inhibition of p110δ/p85α; settings: for PI3Kδ IH % @ 1 uM: 1 uM test compound; for IC50: read-out: PI3Kδ IC50
p110δ/p85α, sequence (O00329 whole entry): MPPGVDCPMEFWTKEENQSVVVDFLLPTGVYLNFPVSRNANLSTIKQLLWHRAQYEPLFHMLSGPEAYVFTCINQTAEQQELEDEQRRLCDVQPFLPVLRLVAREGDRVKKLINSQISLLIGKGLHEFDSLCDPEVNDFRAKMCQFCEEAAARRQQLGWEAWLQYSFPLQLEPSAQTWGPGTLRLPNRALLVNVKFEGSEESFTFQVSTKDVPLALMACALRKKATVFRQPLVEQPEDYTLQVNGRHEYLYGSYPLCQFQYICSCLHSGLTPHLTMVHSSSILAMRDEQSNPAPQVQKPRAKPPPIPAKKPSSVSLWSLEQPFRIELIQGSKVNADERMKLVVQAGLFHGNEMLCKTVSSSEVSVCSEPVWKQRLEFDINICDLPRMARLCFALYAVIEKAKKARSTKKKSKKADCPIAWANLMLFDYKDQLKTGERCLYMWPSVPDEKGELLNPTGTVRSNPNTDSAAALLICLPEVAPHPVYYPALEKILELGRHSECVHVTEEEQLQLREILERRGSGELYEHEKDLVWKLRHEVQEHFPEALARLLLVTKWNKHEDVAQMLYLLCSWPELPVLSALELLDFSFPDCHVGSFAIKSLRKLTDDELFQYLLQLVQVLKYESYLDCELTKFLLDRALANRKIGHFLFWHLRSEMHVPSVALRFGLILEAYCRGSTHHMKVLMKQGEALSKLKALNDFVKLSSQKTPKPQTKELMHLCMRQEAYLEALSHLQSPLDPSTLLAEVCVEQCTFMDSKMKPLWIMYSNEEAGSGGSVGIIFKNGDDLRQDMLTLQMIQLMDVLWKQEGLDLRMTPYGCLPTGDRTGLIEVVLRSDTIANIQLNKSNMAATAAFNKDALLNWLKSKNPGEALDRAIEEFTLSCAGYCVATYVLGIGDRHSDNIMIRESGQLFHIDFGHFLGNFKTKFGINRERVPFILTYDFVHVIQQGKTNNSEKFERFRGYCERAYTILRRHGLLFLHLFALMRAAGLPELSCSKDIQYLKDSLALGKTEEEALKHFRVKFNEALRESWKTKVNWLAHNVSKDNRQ
p110δ/p85α, sequence (P27986 whole entry partner): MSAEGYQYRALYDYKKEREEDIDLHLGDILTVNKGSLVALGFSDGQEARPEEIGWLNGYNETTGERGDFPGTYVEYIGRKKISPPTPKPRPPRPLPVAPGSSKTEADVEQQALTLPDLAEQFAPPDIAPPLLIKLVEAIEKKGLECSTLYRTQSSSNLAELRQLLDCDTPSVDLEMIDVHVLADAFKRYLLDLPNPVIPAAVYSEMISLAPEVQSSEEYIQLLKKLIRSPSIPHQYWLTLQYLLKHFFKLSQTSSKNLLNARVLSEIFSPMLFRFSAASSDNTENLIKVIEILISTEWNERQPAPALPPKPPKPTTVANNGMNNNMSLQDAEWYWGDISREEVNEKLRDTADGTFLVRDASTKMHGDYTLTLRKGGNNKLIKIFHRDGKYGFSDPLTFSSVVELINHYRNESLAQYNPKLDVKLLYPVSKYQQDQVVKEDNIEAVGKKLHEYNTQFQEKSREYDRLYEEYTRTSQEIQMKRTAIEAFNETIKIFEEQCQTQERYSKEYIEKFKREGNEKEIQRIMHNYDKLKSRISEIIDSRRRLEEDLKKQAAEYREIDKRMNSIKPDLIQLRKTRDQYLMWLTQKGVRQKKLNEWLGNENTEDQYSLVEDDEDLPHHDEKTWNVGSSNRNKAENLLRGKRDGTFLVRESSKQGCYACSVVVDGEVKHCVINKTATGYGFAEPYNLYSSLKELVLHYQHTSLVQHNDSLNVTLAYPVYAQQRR
Method in brief: as §1

p110β/p85α, sequence (P42338 whole entry): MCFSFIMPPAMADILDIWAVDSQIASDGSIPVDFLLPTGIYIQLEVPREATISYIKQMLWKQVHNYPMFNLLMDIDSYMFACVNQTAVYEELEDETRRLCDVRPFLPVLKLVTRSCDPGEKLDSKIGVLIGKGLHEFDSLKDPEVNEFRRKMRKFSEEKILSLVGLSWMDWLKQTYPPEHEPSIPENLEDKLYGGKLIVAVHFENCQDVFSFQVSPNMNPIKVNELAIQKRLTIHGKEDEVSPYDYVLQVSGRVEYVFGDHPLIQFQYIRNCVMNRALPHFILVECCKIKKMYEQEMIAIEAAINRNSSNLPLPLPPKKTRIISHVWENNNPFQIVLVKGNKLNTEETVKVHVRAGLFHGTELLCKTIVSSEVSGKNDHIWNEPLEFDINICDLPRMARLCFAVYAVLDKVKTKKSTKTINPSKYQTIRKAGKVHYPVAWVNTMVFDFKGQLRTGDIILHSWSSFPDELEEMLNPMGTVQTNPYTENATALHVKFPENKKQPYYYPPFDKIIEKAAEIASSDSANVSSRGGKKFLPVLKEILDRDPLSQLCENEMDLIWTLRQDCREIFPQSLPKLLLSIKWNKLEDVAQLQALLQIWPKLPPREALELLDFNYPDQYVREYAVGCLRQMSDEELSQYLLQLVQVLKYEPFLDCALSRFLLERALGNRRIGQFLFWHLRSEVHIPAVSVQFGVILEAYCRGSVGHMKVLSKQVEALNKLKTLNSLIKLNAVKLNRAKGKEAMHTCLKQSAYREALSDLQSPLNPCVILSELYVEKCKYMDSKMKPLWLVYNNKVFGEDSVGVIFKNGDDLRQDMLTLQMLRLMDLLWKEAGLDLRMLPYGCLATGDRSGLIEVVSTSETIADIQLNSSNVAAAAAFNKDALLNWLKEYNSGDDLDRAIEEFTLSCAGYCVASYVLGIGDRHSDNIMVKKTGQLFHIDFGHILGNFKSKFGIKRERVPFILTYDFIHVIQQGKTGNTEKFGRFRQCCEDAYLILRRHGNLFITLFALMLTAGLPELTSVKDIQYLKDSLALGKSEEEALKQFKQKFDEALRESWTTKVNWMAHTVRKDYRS
p110β/p85α, sequence (P27986 2-724 partner): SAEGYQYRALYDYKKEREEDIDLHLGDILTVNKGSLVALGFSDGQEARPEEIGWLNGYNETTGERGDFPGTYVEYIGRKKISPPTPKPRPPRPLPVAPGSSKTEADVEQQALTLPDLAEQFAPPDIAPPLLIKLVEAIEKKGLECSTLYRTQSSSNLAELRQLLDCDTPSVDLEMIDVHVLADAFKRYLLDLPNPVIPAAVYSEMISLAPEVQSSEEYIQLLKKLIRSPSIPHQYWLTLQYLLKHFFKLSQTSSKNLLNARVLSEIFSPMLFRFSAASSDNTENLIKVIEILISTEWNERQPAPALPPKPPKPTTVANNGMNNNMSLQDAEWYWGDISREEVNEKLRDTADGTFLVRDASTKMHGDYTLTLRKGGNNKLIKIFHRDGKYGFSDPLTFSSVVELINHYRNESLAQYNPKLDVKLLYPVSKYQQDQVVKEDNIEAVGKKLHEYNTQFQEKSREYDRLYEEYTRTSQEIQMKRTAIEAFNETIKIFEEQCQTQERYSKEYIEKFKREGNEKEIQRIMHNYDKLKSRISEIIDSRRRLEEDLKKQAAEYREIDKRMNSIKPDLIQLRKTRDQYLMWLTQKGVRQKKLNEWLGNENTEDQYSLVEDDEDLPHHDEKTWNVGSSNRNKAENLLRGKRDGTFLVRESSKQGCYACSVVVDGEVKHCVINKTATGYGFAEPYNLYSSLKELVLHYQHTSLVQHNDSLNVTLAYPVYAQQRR

PI3Kβ IH % @ 1 uM [1] [%] | IC50 [1] [nM] | PI3Kγ IH % @ 1 uM [2] [%] | IC50 [2] [nM] | PI3Kδ IH % @ 1 uM [3] [%] | IC50 [3] [nM] | Compound
65.1 |  | 91.8 | 3 | 96.5 | 2 | CC(=O)c1c[nH]c2ncnc(N3C[C@@H](F)C[C@H]3c3nn4ccc(Cl)c4c(=O)n3-c3cccc(F)c3)c12 [Compound 216]
85.0 | 165 | 95.7 |  | 97.3 | 2 | CC(=O)c1c[nH]c2ncnc(N3CCC[C@H]3c3nn4ccc(F)c4c(=O)n3-c3ccccc3)c12 [Compound 218]
22.9 |  | 71.6 |  | 81.0 | 59 | Nc1ncc(Cl)c(N2CC[C@H]2c2nn3ccc(Cl)c3c(=O)n2-c2ccccc2)n1 [Compound 223]
41.8 |  | >100 | 30 | 98.7 | 9 | COCCNC(=O)c1c[nH]c2ncnc(N3CCC[C@H]3c3nn4ccc(Cl)c4c(=O)n3-c3ccccc3)c12 [Compound 226]
>100 |  | >100 |  | >100 |  | C[C@H]1CCN(c2ncnc3[nH]cc(C#N)c23)C1c1nn2ccc(Cl)c2c(=O)n1-c1ccccc1 (stereo partly shown) [Compound 233]
83.4 |  | >100 |  | >100 |  | C[C@H]1CCN(c2ncnc3[nH]cnc23)C1c1nn2ccc(Cl)c2c(=O)n1-c1ccccc1 (stereo partly shown) [Compound 234]
79.8 |  | 94.9 |  | >100 |  | C[C@H]1CCN(c2nc(N)ncc2C#N)C1c1nn2ccc(Cl)c2c(=O)n1-c1ccccc1 (stereo partly shown) [Compound 236]
45.0 |  | >100 | 36 | 98.1 | 34 | Nc1ncc([N+](=O)[O-])c(N2CCC[C@H]2c2nn3ccc(Cl)c3c(=O)n2-c2ccccc2)n1 [Compound 240]
46.5 |  | 98.9 | 19 | 96.8 | 10 | Nc1nc2c(c(N3CCC[C@H]3c3nn4ccc(Cl)c4c(=O)n3-c3ccccc3)n1)C(=O)CCN2 [Compound 242]
38.4 |  | 77.5 | 337 | 78.0 | 341 | Nc1nc2c(c(N3CCC[C@H]3c3nn4ccc(Br)c4c(=O)n3-c3ccccc3)n1)CCC2 [Compound 245]

The next lines start with the compound.

Compound | PI3Kβ IH % @ 1 uM [1] [%] | IC50 [1] [nM] | PI3Kγ IH % @ 1 uM [2] [%] | IC50 [2] [nM] | PI3Kδ IH % @ 1 uM [3] [%] | IC50 [3] [nM]
O=c1c2c(Cl)ccn2nc([C@@H]2C[C@H](F)CN2c2ncnc3[nH]cnc23)n1-c1cccc(F)c1 [Compound 214] | 65.7 | 271 | >100 | 12 | 99.7 | 1
Nc1ncc(F)c(N2CCC[C@H]2c2nn3ccc(Cl)c3c(=O)n2-c2ccccc2)n1 [Compound 215] | 32.8 |  | 88.1 | 135 | 98.5 | 52
C[S+]([O-])c1c[nH]c2ncnc(N3CCC[C@H]3c3nn4ccc(F)c4c(=O)n3-c3ccccc3)c12 (stereo partly shown) [Compound 219] | 75.1 | 358 | 87.4 | 14 | 98.4 | 3
O=c1c2c(Cl)ccn2nc([C@@H]2CCCN2c2ncnc3[nH]nnc23)n1-c1ccccc1 [Compound 220] | 25.1 |  | 54.8 |  | 84.8 | 242
CSc1n[nH]c2ncnc(N3CCC[C@H]3c3nn4ccc(Cl)c4c(=O)n3-c3ccccc3)c12 [Compound 221] | 16.3 |  | 88.6 | 24 | 68.0 | 
CSc1n[nH]c2ncnc(N3CC[C@H]3c3nn4ccc(Cl)c4c(=O)n3-c3ccccc3)c12 [Compound 222] | 40.5 |  | 88.1 | 21 | 43.0 | 
C#Cc1cnc(N)nc1N1CC[C@H]1c1nn2ccc(Cl)c2c(=O)n1-c1ccccc1 [Compound 224] | 22.7 |  | >100 |  | 85.9 | 60
N#Cc1c[nH]c2ncnc(N3C[C@@H](F)C[C@H]3c3nn4ccc(F)c4c(=O)n3-c3ccccc3)c12 [Compound 225] | 96.3 | 54 | >100 | 5 | >100 | 1
N#Cc1cnc(N)nc1N1C[C@@H](F)C[C@H]1c1nn2ccc(F)c2c(=O)n1-c1ccccc1 [Compound 227] | 59.6 |  | >100 | 18 | >100 | 5
COCCNC(=O)c1c[nH]c2ncnc(N3CC[C@H]3c3nn4ccc(Cl)c4c(=O)n3-c3ccccc3)c12 [Compound 228] | 13.8 |  | 59.9 |  | 74.6 | 176
N#Cc1cnc(N)nc1N1C[C@@H](F)C[C@H]1c1nn2ccc(Cl)c2c(=O)n1-c1ccccc1 [Compound 229] | 81.5 | 262 | 90.4 | 2 | 97.6 | 3
N#Cc1cnc(N)nc1N1CCC[C@H]1c1nn2ccc(F)c2c(=O)n1-c1ccccc1 [Compound 230] | 75.2 | 280 | 87.3 | 7 | >100 | 3
N#Cc1cnc(N)nc1N1CCC[C@H]1c1nn2ccc(Cl)c2c(=O)n1-c1ccc(F)cc1 [Compound 231] | 80.5 | 197 | 96.8 | 4 | 98.1 | 9
N#Cc1cnc(N)nc1N1CCC[C@H]1c1nn2ccc(Cl)c2c(=O)n1-c1cccc(F)c1 [Compound 232] | 63.4 |  | >100 | 14 | >100 | 6
C[C@H]1CN(c2ncnc3[nH]cnc23)C1c1nn2ccc(Cl)c2c(=O)n1-c1ccccc1 (stereo partly shown) [Compound 237] | 37.6 |  | 86.3 | 35 | >100 | 14
C#Cc1cnc(N)nc1N1CCC[C@H]1c1nn2ccc(Cl)c2c(=O)n1-c1ccccc1 [Compound 238] | 33.8 |  | >100 | 18 | >100 | 14
Cc1nc(N2CCC[C@H]2c2nn3ccc(F)c3c(=O)n2-c2ccccc2)c2nc[nH]c2n1 [Compound 239] | 59.8 |  | >100 | 75 | 98.7 | 18
Nc1nc2c(c(N3CC[C@H]3c3nn4ccc(Cl)c4c(=O)n3-c3ccccc3)n1)C(=O)CCN2 [Compound 241] | 31.9 |  | 98.7 | 14 | 95.3 | 32
C[C@H]1CN(c2ncnc3[nH]cc(C#N)c23)[C@@H]1c1nn2ccc(F)c2c(=O)n1-c1ccccc1 [Compound 244] | 58.4 |  | 92.7 | 30 | 99.8 | 4
